Assay results: patent US8258295B2, “Triazine derivatives, compositions containing such derivatives, and methods of treatment of cancer and autoimmune diseases using such derivatives” (Prometic Biosciences Inc., priority 2007, dated 2012)

Assays:
[1] = system: oxazolone-induced delayed-type hypersensitivity (DTH); assay: Oxazolone-induced delayed-type hypersensitivity (DTH) in mice; type: in vivo
Protocol: Compounds were tested for their ability to treat oxazolone-induced delayed-type hypersensitivity (DTH) in mice. […] On day 0, day 1, and day 2, mice were treated by intravenous (IV) or oral (PO) administrations of the vehicle (control) or methotrexate (MTX; positive control/IV) or hydrocortisone (positive control/PO) or the compound at concentration lower than or equal to 50 mg/kg or as specified. Mice were challenged with an application of 50 μl of oxazolone on the surface of the right ear (first challenge, day 3; second challenge, day 10). Ear thickness was measured on day 4 to day 7, and on day 11 to 14. Redness and crust formation was also observed. Mice were sacrificed on day 14. TDTH (CD4) cells play an important role in regulating the intensity of the DTH response. Compounds may exert an inhibitory influence on the DTH response through its inhibition of T-cell activation and DNA, RNA, and/or protein synthesis.

[2] = system: xenograft human prostate PC-3 tumor; assay: Xenograft human prostate PC-3 tumor in nude mice; type: in vivo, mouse; details: FIG. 10A; CD1 nu/nu mice; compound IV 5 mg/kg
Protocol: PC-3 cells were grown in RPMI-1640 containing 10% fetal bovine serum. […] The animals were then serially monitored by manual palpation for evidence of tumor. […] Serial tumor volume was obtained by bi-dimensional diameter measurements with calipers, using the formula 0.4 (a×b^2) where “a” was the major tumor diameter and “b” the minor perpendicular diameter.

[3] = system: LPS-induced inflammation in the rat air-pouch model; assay: LPS-induced inflammation in rat air-pouch model; type: in vivo, rats; details: IV; for PGE2 production induced by LPS / TNFα production induced by LPS / LTB4 production induced by LPS / MCP-1 production induced by LPS: pouch exudate; for LTB4 production induced by LPS: FIG. 20C; for MCP-1 production induced by LPS: FIG. 20D; for white blood cell count: two hours after LPS induction, FIG. 19
Source text: LPS-induced inflammation in the rat air-pouch model is believed to mimic the pathological process occurring in joint diseases such as arthritis. This is because the connective tissues formed along the air pouch are similar to those found in chronic joint diseases. LPS-induced inflammation and chronic joint diseases share other features, including markedly elevated PGE2, neutrophil infiltration, cytokine formation, and tissue damage.
An air cavity was produced at day −6 by subcutaneous injection of 20 ml of sterile air into the intrascapular area of the back of male Lewis rats (175 to 200 g). An additional 10 ml of air was injected into the cavity at day −3 to keep the space open. At day 0, compounds were administered intravenously and one hour later lipopolysaccharide (LPS: 2.5 ml of 2 μg/ml in PBS) was injected into the pouch to produce an inflammatory reaction. […] The pouch fluid was collected. The volume of exudates was measured and the number of leukocytes present in the exudates was determined with a Coulter counter. The differential count was determined by Wright-Giemsa staining. PGE2, LTB4, MCP, and TNFα were determined in the pouch exudates by specific ELISAs.

NZB×NZW mice = assay: Systemic lupus erythematosus model, NZB×NZW mice; type: in vivo; details: IV once a week from week 10 to week 46; FIG. 12
Source text: New Zealand mice of the F1 hybrid cross NZB×NZW develop most of the autoimmune abnormalities seen in human SLE and die from SLE-like immune complex (IC)-mediated glomerulonephritis. The mice develop high titers of anti-DNA (double-strand and single-strand) and nuclear extract (NE) antibodies, as well as SLE-related clinical manifestations including leukopenia, thrombocytopenia, proteinuria, and glomerulonephritis. These mice develop anti-DNA antibodies after the age of three months, with a peak of anti-DNA antibody response occurring at seven months. Subsequently, the serum concentration of anti-DNA antibodies declines, presumably as a consequence of progressive uremia. The first serological manifestations of the disease occurs at about 150 days (i.e., five months). Their survival is evaluated at approximately 250 days.
Intravenous administration of compound or vehicle was undertaken once a week from week 10 to week 46.

DA-3 breast tumor = assay: Primary DA-3 breast tumor in mice; type: in vivo; details: FIG. 4B; compound I IV 50 mg/kg, alone or with cyclophosphamide; up to day 35
PC-3 cells = assay: In vitro PC-3 cell migration or invasion assay (EGF-induced); type: cell-based, human; details: mitomycin C treated cells, 24 hr
Protocol: An in vitro migration assay was used to assess cell mobility in two dimensions. PC-3 cells were plated on a 12-well plate and grown to confluence in RPMI+10% FBS. A rubber policeman was used to create a denuded area. Confluent cells were quiesced by mitomycin C treatment (0.5 μM) at the concentration used to prevent the confounding issue of cell proliferation and protein synthesis. These cells were also incubated in the presence or absence of […] growth factor (EGF) and compound for 24 hr, then they were photographed.
The effects of EGF and compound V on PC-3 cell migration or invasion in the in vitro migration assay were determined. EGF promotes the migration or invasion of PC-3 cells treated with mitomycin compared to control (i.e., no added EGF).

TNFα production = assay: LPS-induced TNFα production in J774A.1 cells (ELISA); type: cell-based; details: Mus musculus, J774.A1, 24 hr
Protocol: (§1) Effect of compounds on TNFα production was measured by ELISA using J774A.1 cells stimulated by LPS. J774A.1 cells were cultured in the presence or absence of LPS and compound. Cells were cultured for 24 hr at 37° C. and thereafter the supernatants were collected for the determination of the concentration of TNFα by ELISA as recommended by the manufacturer (BD Biosciences). Data was analyzed in Microsoft Excel software and the concentration of compound which inhibits 50% of TNFα production (IC50) was calculated using Prism software.

PGE2 production = assay: LPS-induced PGE2 production in J774A.1 cells (ELISA); type: cell-based; details: Mus musculus, J774.A1, 24 hr, FIG. 11
Protocol: as §1, with “PGE2” for “TNFα”, “(GE Healthcare).” for “(BD Biosciences).”

DNBS-induced colitis = DNBS-induced colitis in CD1 mice; type: in vivo; details: vs vehicle
Protocol: The 2,4-dinitrobenzene sulfonic acid (DNBS) induced experimental colitis mouse model serves as a model of inflammatory bowel disease. On day 0, CD1 mice were sensitized with DNBS by intra-colinic instillation of 0.1 ml of an ethanolic solution (30%) of DNBS (40 mg/ml). Compound V was administered orally once a day for four consecutive days at 25 mg/kg and 50 mg/kg, starting one hour after sensitization with DNBS. On the fourth day, mice were sacrificed and 8 cm of the distal colon was collected and opened longitudinally for macroscopic evaluation.

[4] = twelve hours after induction, FIG. 21B
[5] = twelve hours post-LPS induction, FIG. 21A
[6] = two hours after induction, FIG. 20A
[7] = two hours after induction, FIG. 20B

SMILES	PGE2 production induced by LPS [3, 4]	TNFα production induced by LPS [3, 5]	TNFα production induced by LPS [3, 6]	PGE2 production induced by LPS [3, 7]	LTB4 production induced by LPS ([3]; two hours after induction)	MCP-1 production induced by LPS ([3]; two hours after induction)	white blood cell count [3]	IC50 (TNFα production) [µM]	also measured
NCCCCCNc1nc(NCCc2ccc(S(N)(=O)=O)cc2)nc(Nc2cccc(F)c2)n1 [Compound II]	weak and insignificant increase	no effect	increase the concentration of TNFα	weak and insignificant inhibition	weak inhibition	no influence	significant inhibition	–	inflammation (ear thickness) after DTH ([1]; IV 5 mg/kg, first challenge of oxazolone): significant reduction of the inflammation; inflammation (ear thickness) after DTH ([1]; IV 5 mg/kg, second challenge of oxazolone): significant reduction of the inflammation; effect on PC-3 tumor growth [2]: cytostatic (no growth) effect up to day 42
NCCCCCNc1nc(NCCc2ccc(O)cc2)nc(Nc2cccc(F)c2)n1 [Compound I]	–	–	–	–	–	–	–	29	mortality of NZB×NZW mice (NZB×NZW mice): reduces the mortality; effect on DA-3 tumor growth (DA-3 breast tumor): weak inhibitory effect; inflammation (ear thickness) after DTH ([1]; IV 25 mg/kg, first challenge of oxazolone): significant reduction of the inflammation; inflammation (ear thickness) after DTH ([1]; IV 25 mg/kg, second challenge of oxazolone): significant reduction of the inflammation; EGF-induced PC-3 migration or invasion (PC-3 cells; 1 μM to 20 μM): inhibition of the EGF-induced PC-3 migration or invasion
NCCCCCNc1nc(NCCc2ccc(O)cc2)nc(Nc2ccc(F)cc2)n1 [Compound V]	significant inhibition	significant inhibition	significant inhibition	significant inhibition	weak inhibition	weak inhibition	significant inhibition	13	inflammation (ear thickness) after DTH ([1]; oral 50 mg/kg, FIG. 15): significant reduction of the inflammation; IC50 (PGE2 production): 2 µM; EGF-induced PC-3 migration or invasion (PC-3 cells; 1 μM to 10 μM): inhibition of the EGF-induced PC-3 migration or invasion; DNBS-induced macroscopic damage area of the colon mucosal tissue (DNBS-induced colitis; oral 25 mg/kg and 50 mg/kg, FIG. 22): strong and significant decrease; body weight (DNBS-induced colitis; oral once a day for four days, 25 mg/kg and 50 mg/kg): weak but significant increase of body weight
